Measured values reported in patent US9586945B2, “Aminochromane, aminothiochromane and amino-1,2,3,4-tetrahydroquinoline derivatives, pharmaceutical compositions containing them, and their use in therapy” (AbbVie Deutschland GmbH & Co. KG, priority 2013, dated 2017).

What was measured:
human GlyT1c transporter = human GlyT1c transporter (Homo sapiens (Human), UniProt P48067); experiment: Radioligand binding assay using recombinant CHO cell membranes expressing human GlyT1; details: examples marked * tested as fumarate salts, read-out: radioligand binding Kiapp
Chain of human GlyT1c transporter (P48067 whole entry): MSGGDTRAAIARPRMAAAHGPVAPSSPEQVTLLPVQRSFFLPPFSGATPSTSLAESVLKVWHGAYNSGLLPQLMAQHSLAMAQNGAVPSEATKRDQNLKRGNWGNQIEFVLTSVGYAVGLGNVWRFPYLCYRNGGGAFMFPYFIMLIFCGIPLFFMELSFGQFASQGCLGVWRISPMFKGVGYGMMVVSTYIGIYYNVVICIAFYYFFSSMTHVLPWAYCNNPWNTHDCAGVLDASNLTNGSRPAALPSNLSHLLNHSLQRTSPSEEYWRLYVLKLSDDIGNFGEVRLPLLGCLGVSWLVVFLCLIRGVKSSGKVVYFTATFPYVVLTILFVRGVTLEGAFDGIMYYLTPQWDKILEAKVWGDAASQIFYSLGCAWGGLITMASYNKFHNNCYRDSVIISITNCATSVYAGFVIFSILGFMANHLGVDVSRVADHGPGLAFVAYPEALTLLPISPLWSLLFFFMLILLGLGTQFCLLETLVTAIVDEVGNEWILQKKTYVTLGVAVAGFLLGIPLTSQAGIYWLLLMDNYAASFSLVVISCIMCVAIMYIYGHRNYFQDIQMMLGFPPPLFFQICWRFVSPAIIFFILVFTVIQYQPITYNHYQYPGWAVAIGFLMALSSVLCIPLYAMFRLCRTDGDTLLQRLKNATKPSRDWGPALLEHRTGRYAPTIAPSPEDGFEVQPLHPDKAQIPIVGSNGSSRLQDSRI

[1] = Metabolic stability in human liver microsomes; format: in vitro ADME; details: 0.5 μM test substance, NADPH, 37° C., scaled microsomal clearance, examples marked * tested as fumarate salts
Experimental: Metabolic stability was determined as follows:
0.5 μM test substance was preincubated together with human liver microsomes (0.25 mg of microsomal protein/[…]) in 0.05 M potassium phosphate buffer of pH 7.4 in microtiter plates at 37° C. for 5 min. The reaction was started by adding NADPH (1.0 mM). After 0, 5, 10, 15, 20 and 30 min the reaction was stopped and cooled with twice the amount of quench solution consisting of acetonitrile/methanol 1:1, and containing 0.2 μM carbutamide. The samples were frozen until analyzed. The remaining concentration of undegraded test substance was determined by LC MSMS. The half-life (T1/2) was determined from the gradient of the signal of test substance/unit time plot, al-lowing to calculate the half-life of the test substance, assuming first order kinetics, from the de-crease in the concentration of the compound with time. The microsomal clearance (mClint) was calculated as follows: mClint=((ln(2)/t1/2)/Microsomal Protein Concentration (mg/ml))*1000, leading to the unit of uL/min/mg. The scaled clearance (mClin_scaled) was calculated as mCLint_scaled=m CLint*(Microsomal Yield (mg/kg BW))/1000000*60, leading to the units L/hr/kg. The Microsomal Yield is defined by the specifics of the used microsomes. Calculations were modified from references: Di, The Society for Biomolecular Screening, 2003, 453-462; Obach, DMD, 1999 vol 27. N 11, 1350-1359.

SMILES	Ki (human GlyT1c transporter)	human mCl [1]
CCS(=O)(=O)NC1CN(c2ccc3c(c2)[C@H](Cc2ccccc2)[C@H](N2CCC2)CO3)C1 (relative stereo) [Example 2, Cis-N-(1-(3-(azetidin-1-yl)-4-benzylchroman-6-yl)azetidin-3-yl)ethanesulfonamide]	≤ 1000 nM	≦5 L/h/Kg
CCCS(=O)(=O)NC1CN(c2ccc3c(c2)[C@H](Cc2ccccc2)[C@H](N2CCC2)CO3)C1 (relative stereo) [Example 3, Cis-N-(1-(3-(azetidin-1-yl)-4-benzylchroman-6-yl)azetidin-3-yl)propane-1-sulfonamide]	≤ 100 nM	≦5 L/h/Kg
O=S(=O)(CC1CC1)NC1CN(c2ccc3c(c2)[C@H](Cc2ccccc2)[C@H](N2CCC2)CO3)C1 (relative stereo) [Example 4, Cis-N-(1-(3-(azetidin-1-yl)-4-benzylchroman-6-yl)azetidin-3-yl)-1-cyclopropylmethanesulfonamide]	≤ 100 nM	≦5 L/h/Kg
Cn1cc(S(=O)(=O)NC2CN(c3ccc4c(c3)[C@H](Cc3ccccc3)[C@H](N3CCC3)CO4)C2)cn1 (relative stereo) [Example 5, Cis-N-(1-(3-(azetidin-1-yl)-4-benzylchroman-6-yl)azetidin-3-yl)-1-methyl-1H-pyrazole-4-sulfonamide]	≤ 100 nM	≦5 L/h/Kg
Cn1cc(S(=O)(=O)NC2CN(c3ccc4c(c3)[C@H](Cc3ccccc3)[C@H](N3CCC3)CO4)C2)nn1 (relative stereo) [Example 6, Cis-N-(1-(3-(azetidin-1-yl)-4-benzylchroman-6-yl)azetidin-3-yl)-1-methyl-1H-1,2,3-triazole-4-sulfonamide]	≤ 10 nM	≦5 L/h/Kg
O=S(=O)(NC1CN(c2cc3c(cc2F)OC[C@@H](N2CCC2)[C@H]3Cc2ccccc2)C1)c1cccnc1F (relative stereo) [Example 8, Cis-N-(1-(3-(azetidin-1-yl)-4-benzyl-7-fluorochroman-6-yl)azetidin-3-yl)-2-fluoropyridine-3-sulfonamide]	≤ 1000 nM	≦50 L/h/Kg
O=S(=O)(NC1CN(c2cc3c(cc2F)OC[C@@H](N2CCC2)[C@H]3Cc2ccccc2)C1)c1cccnn1 (relative stereo) [Example 9, Cis-N-(1-(3-(azetidin-1-yl)-4-benzyl-7-fluorochroman-6-yl)azetidin-3-yl)pyridazine-3-sulfonamide]	≤ 1000 nM	≦50 L/h/Kg
O=S(=O)(NC1CN(c2ccc3c(c2)[C@H](Cc2ccccc2)[C@H](N2CCC2)CO3)C1)c1cccnc1F (relative stereo) [Example 10, Cis-N-(1-(3-(azetidin-1-yl)-4-benzylchroman-6-yl)azetidin-3-yl)-2-fluoropyridine-3-sulfonamide]	≤ 100 nM	≦5 L/h/Kg
CCS(=O)(=O)NC1CN(c2ccc3c(c2)[C@H](Cc2ccccc2)[C@H](NC)CO3)C1 (relative stereo) [Example 12, Cis-N-(1-(-4-benzyl-3-(methylamino)chroman-6-yl)azetidin-3-yl)ethanesulfonamide]	≤ 100 nM	≦5 L/h/Kg
N[C@@H]1COc2ccc(N3CC(NS(=O)(=O)CC4CC4)C3)cc2[C@@H]1Cc1ccccc1 (relative stereo) [Example 21, Cis-N-(1-(3-amino-4-benzylchroman-6-yl)azetidin-3-yl)-1-cyclopropylmethanesulfonamide]	≤ 10 nM	≦5 L/h/Kg
O=S(=O)(NC1CN(c2cc3c(cc2F)OC[C@@H](N2CCC2)[C@H]3Cc2ccccc2)C1)c1cncc(F)c1 (relative stereo) [Example 26, Cis-1-(4-benzyl-7-fluoro-6-(3-(5-fluoropyridine-3-sulfonamido)azetidin-1-yl)chroman-3-yl)azetidin-1-ium (E)-3-carboxyacrylate]	≤ 100 nM	≦50 L/h/Kg
CCCN[C@@H]1COc2ccc(N3CC(NS(=O)(=O)CCC)C3)cc2[C@@H]1Cc1ccccc1 (relative stereo) [Example 29, Cis-N-(1-(4-benzyl-3-(propylamino)chroman-6-yl)azetidin-3-yl)propane-1-sulfonamide]	≤ 100 nM	≦5 L/h/Kg
CCCS(=O)(=O)NC1CN(c2ccc3c(c2)[C@H](Cc2ccccc2)[C@H](N(CC)CC)CO3)C1 (relative stereo) [Example 30, Cis-N-(1-(4-benzyl-3-(diethylamino)chroman-6-yl)azetidin-3-yl)propane-1-sulfonamide]	≤ 100 nM	≦50 L/h/Kg
CCCS(=O)(=O)NC1CN(c2ccc3c(c2)[C@H](Cc2ccccc2)[C@H](NCC2CC2)CO3)C1 (relative stereo) [Example 31, Cis-N-(1-(4-benzyl-3-((cyclopropylmethyl)amino)chroman-6-yl)azetidin-3-yl)propane-1-sulfonamide]	≤ 1000 nM	≦5 L/h/Kg
CCCS(=O)(=O)NC1CN(c2ccc3c(c2)[C@H](Cc2ccccc2)[C@H](NC2CCC2)CO3)C1 (relative stereo) [Example 32, Cis-N-(1-(4-benzyl-3-(cyclobutylamino)chroman-6-yl)azetidin-3-yl)propane-1-sulfonamide]	≤ 1000 nM	≦5 L/h/Kg
CCCS(=O)(=O)NC1CN(c2ccc3c(c2)C(Cc2ccccc2)C(NC)CO3)C1 (single isomer, unassigned) [Example 22, Cis-N-(1-(4-benzyl-3-(methylamino)chroman-6-yl)azetidin-3-yl)propane-1-sulfonamide]	≤ 10 nM	≦5 L/h/Kg
CCCS(=O)(=O)NC1CN(c2ccc3c(c2)C(Cc2ccccc2)C(NC)CO3)C1 (single isomer, unassigned) [Example 23, Cis-N-(1-(4-benzyl-3-(methylamino)chroman-6-yl)azetidin-3-yl)propane-1-sulfonamide]	≤ 1000 nM	≦50 L/h/Kg
CNC1COc2ccc(N3CC(NS(=O)(=O)CC4CC4)C3)cc2C1Cc1ccccc1 (single isomer, unassigned) [Example 24, Cis-N-(1-(4-benzyl-3-(methylamino)chroman-6-yl)azetidin-3-yl)-1-cyclopropylmethanesulfonamide]	≤ 10 nM	≦50 L/h/Kg
CNC1COc2ccc(N3CC(NS(=O)(=O)CC4CC4)C3)cc2C1Cc1ccccc1 (single isomer, unassigned) [Example 25, Cis-N-(1-(4-benzyl-3-(methylamino)chroman-6-yl)azetidin-3-yl)-1-cyclopropylmethanesulfonamide]	≤ 1000 nM	≦5 L/h/Kg
CCCS(=O)(=O)NC1CN(c2cc3c(cc2F)OCC(NC)C3Cc2ccccc2)C1 (single isomer, unassigned) [Example 27, Cis-N-(1-(4-benzyl-7-fluoro-3-(methylamino)chroman-6-yl)azetidin-3-yl)propane-1-sulfonamide]	≤ 10 nM	≦50 L/h/Kg
CCCS(=O)(=O)NC1CN(c2cc3c(cc2F)OCC(NC)C3Cc2ccccc2)C1 (single isomer, unassigned) [Example 28, Cis-N-(1-(4-benzyl-7-fluoro-3-(methylamino)chroman-6-yl)azetidin-3-yl)propane-1-sulfonamide]	≤ 100 nM	≦5 L/h/Kg
Cn1cnc(S(=O)(=O)NC2CN(c3ccc4c(c3)C(Cc3ccccc3)C(N3CCC3)CO4)C2)c1 (centres unmarked) [Example 1, N-[1-[3-(azetidin-1-yl)-4-benzyl-chroman-6-yl]azetidin-3-yl]-1-methyl-imidazole-4-sulfonamide]	≤ 10 nM	≦5 L/h/Kg
